Values joined by “and” are separate entries in the source; they are usually repeats but may differ in a detail not shown here. Equal entries are not always repeated.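 Five concentrations, 48 hours, 96-well plates. GI50: concentration for 50% inhibition of growth. TGI marks complete inhibition of growth.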
Assays:
Experiment in all cases: NCI tumour cell line growth inhibition, 48 h
DMS 114 small cell lung = tested on: DMS 114 small cell lung
DMS 273 small cell lung = tested on: DMS 273 small cell lung
M19-MEL melanoma = tested on: M19-MEL melanoma
SNB-78 CNS = tested on: SNB-78 CNS
HOP-18 NSCLC = tested on: HOP-18 NSCLC
XF 498 CNS = tested on: XF 498 CNS
RXF-631 renal = tested on: RXF-631 renal
P388 leukemia = tested on: P388 leukemia
P388/ADR leukemia = tested on: P388/ADR leukemia
SN12K1 renal = tested on: SN12K1 renal

SMILES	TGI (DMS 114 small cell lung)	TGI (DMS 273 small cell lung) [µM]	TGI (M19-MEL melanoma) [µM]	TGI (SNB-78 CNS) [µM]	GI50 (DMS 273 small cell lung) [µM]	TGI (HOP-18 NSCLC) [µM]	TGI (XF 498 CNS) [µM]	TGI (RXF-631 renal) [µM]	TGI (P388 leukemia) [µM]	TGI (P388/ADR leukemia) [µM]	TGI (SN12K1 renal) [µM]
CCOC(=O)CSc1nnc(C(Sc2nc(-c3ccccc3)c(-c3ccccc3)[nH]2)C(C)C)n1-c1ccccc1 (stereo unspecified)	> 10 µM	> 10	> 10	> 10	–	–	–	–	–	–	–
CCCc1ccc(NCc2cc(OC)c(OC)c(OC)c2)cc1	29.8 µM	31.8	44.6	> 100	16.2	> 100	52.8	–	–	–	–
CC(NC(C)(C)C)C(=O)c1cccc(Cl)c1 (stereo unspecified)	> 100 µM	> 100	> 100	–	–	–	> 100	> 100	–	–	–
CC1(C)OCC(C(O)C2OC(C)(C)OC2/C=N\O)O1 (stereo unspecified)	> 100 µM	> 100	> 100	> 100	–	> 100	> 100	–	–	–	–
C/C1=C\[C@@H](O)C(=O)/C=C/C=C\c2csc(n2)[C@@H](C)NC(=O)C[C@@]2(CC1)S(=O)SC(=O)[C@]2(C)O (stereo partly specified)	0.169 µM and 0.022 µM	0.106	–	0.0589	–	0.178	–	–	–	–	–
COc1cc2c(cc1OC)C1(c3ccc(Cl)cc3)ON=C(c3ccccc3)N1CS2 (stereo unspecified)	> 100 µM	> 100	> 100	> 100	–	> 100	–	> 100	–	–	–
COc1cc(/C=C(/C#N)C(N)=O)ccc1O	> 100 µM	> 100	> 100	> 100	–	> 100	> 100	–	> 100	> 100	> 100
Cc1cc(NCCCCCCCNc2cc(C)nc3cc([N+](=O)[O-])ccc23)c2ccc([N+](=O)[O-])cc2n1	3.28 µM	15.5	35.9	> 31.6	–	31.1	> 48.1	> 45.9	–	–	–
Nc1ccc(C(=O)NN2C(=O)C(Cl)C2c2ccccc2)cc1 (stereo unspecified)	> 100 µM	> 100	> 100	> 100	–	–	> 100	–	–	–	–
N#C/C(=C\c1c[nH]c2ccccc12)C(=O)c1ccc(O)c(O)c1	–	> 100	> 100	–	–	93.5	> 100	–	–	–	–
Cc1ccc(CC(C)N)cc1 (stereo unspecified)	> 100 µM	> 100	–	> 100	–	> 100	–	> 100	–	–	–
COc1cc(-c2cc(-c3cc([N+](=O)[O-])c(/C=N/NC(=O)c4ccncc4)o3)ccc2OC)ccc1C	–	–	> 100	–	–	–	> 100	> 100	–	–	–
O=C(Cc1ccccc1)NN1C(=O)C(Cl)C1c1ccccc1O (stereo unspecified)	46.5 µM	> 100	89.6	> 100	–	61.2	> 100	–	–	–	–

From PubChem BioAssay (NCI)
